In PubChem BioAssay AID1259407 (Chemical Carcinogenesis Research Information System (CCRIS), 2018) one finds mutagenic call data, which are given here for twelve compounds.

The source made the active and inactive calls. How the calls were made is not given here.

The data set concerns CCRIS mutagenicity, Ames/micronucleus/aberration tests. In words: CCRIS mutagenicity studies.
Setting [1] is: Test System: AMES SALMONELLA TYPHIMURIUM, Strain/Indicator: TA98, Metabolic Activation: HAMSTER, LIVER, S-9, AROCLOR 1254, Method: STANDARD PLATE.
The mark [2] stands for this setting: Test System: AMES SALMONELLA TYPHIMURIUM, Strain/Indicator: TA98, Metabolic Activation: NONE, Method: STANDARD PLATE.
Where [3] appears, read: Test System: AMES SALMONELLA TYPHIMURIUM, Strain/Indicator: TA98, Metabolic Activation: RAT, LIVER, S-9, AROCLOR 1254, Method: STANDARD PLATE.
Setting [4] is: Test System: AMES SALMONELLA TYPHIMURIUM, Strain/Indicator: TA100, Metabolic Activation: HAMSTER, LIVER, S-9, AROCLOR 1254, Method: STANDARD PLATE.
Where [5] appears, read: Test System: AMES SALMONELLA TYPHIMURIUM, Strain/Indicator: TA100, Metabolic Activation: NONE, Method: STANDARD PLATE.
[6] abbreviates: Test System: AMES SALMONELLA TYPHIMURIUM, Strain/Indicator: TA100, Metabolic Activation: RAT, LIVER, S-9, AROCLOR 1254, Method: STANDARD PLATE.
Setting [7] is: Test System: AMES SALMONELLA TYPHIMURIUM, Strain/Indicator: TA1535, Metabolic Activation: HAMSTER, LIVER, S-9, AROCLOR 1254, Method: STANDARD PLATE.
[8] abbreviates: Test System: AMES SALMONELLA TYPHIMURIUM, Strain/Indicator: TA1535, Metabolic Activation: NONE, Method: STANDARD PLATE.
The mark [9] stands for this setting: Test System: AMES SALMONELLA TYPHIMURIUM, Strain/Indicator: TA1535, Metabolic Activation: RAT, LIVER, S-9, AROCLOR 1254, Method: STANDARD PLATE.
Setting [10] is: Test System: AMES SALMONELLA TYPHIMURIUM, Strain/Indicator: TA1537, Metabolic Activation: HAMSTER, LIVER, S-9, AROCLOR 1254, Method: STANDARD PLATE.
[11] abbreviates: Test System: AMES SALMONELLA TYPHIMURIUM, Strain/Indicator: TA1537, Metabolic Activation: NONE, Method: STANDARD PLATE.
The mark [12] stands for this setting: Test System: AMES SALMONELLA TYPHIMURIUM, Strain/Indicator: TA1537, Metabolic Activation: RAT, LIVER, S-9, AROCLOR 1254, Method: STANDARD PLATE.
[13] abbreviates: Test System: AMES SALMONELLA TYPHIMURIUM, Strain/Indicator: TA1538, Metabolic Activation: HAMSTER, LIVER, S-9, AROCLOR 1254, Method: STANDARD PLATE.
The mark [14] stands for this setting: Test System: AMES SALMONELLA TYPHIMURIUM, Strain/Indicator: TA1538, Metabolic Activation: NONE, Method: STANDARD PLATE.
Where [15] appears, read: Test System: AMES SALMONELLA TYPHIMURIUM, Strain/Indicator: TA1538, Metabolic Activation: RAT, LIVER, S-9, AROCLOR 1254, Method: STANDARD PLATE.
The mark [16] stands for this setting: Test System: AMES SALMONELLA TYPHIMURIUM, Strain/Indicator: TA100, Metabolic Activation: RAT, LIVER, S-9, AROCLOR 1254, Method: PREINCUBATION
Where [17] appears, read: Test System: AMES SALMONELLA TYPHIMURIUM, Strain/Indicator: TA100, Metabolic Activation: NONE, Method: PREINCUBATION
Where [18] appears, read: Test System: AMES SALMONELLA TYPHIMURIUM, Strain/Indicator: TA1535, Metabolic Activation: NONE, Method: PREINCUBATION
Where [19] appears, read: Test System: AMES SALMONELLA TYPHIMURIUM, Strain/Indicator: TA100, Metabolic Activation: S-9, Method: STANDARD PLATE.

Consider `CC/C(=C(\c1ccccc1)c1ccc(OCCN(C)C)cc1)c1ccccc1`, for which the mutagenic call reads like this: (End Point: IN VITRO CHROMOSOMAL ABERRATIONS, Test System: SYRIAN HAMSTER EMBRYO (SHE) CELLS, Metabolic Activation: NONE) “inactive; negative”; (End Point: IN VITRO MICRONUCLEUS, Test System: AHH-1 CELLS, Metabolic Activation: NONE) “inactive; negative”; (End Point: IN VITRO MICRONUCLEUS, Test System: MCL-5 CELLS, Metabolic Activation: NONE) “active; positive”; under setting [1], “inactive; negative”; under setting [2], “inactive; negative”; under setting [3], “inactive; negative”. Further, the mutagenic call under setting [4] is “inactive; negative”; the mutagenic call under setting [5] was “inactive; negative”; the mutagenic call under setting [6] was “inactive; negative”; the mutagenic call under setting [7] is “inactive; negative”; the mutagenic call under setting [8] is “inactive; negative”; the mutagenic call under setting [9] is “inactive; negative”. Besides, the mutagenic call by setting is: under setting [10], “inactive; negative”; under setting [11], “inactive; negative”; under setting [12], “inactive; negative”; under setting [13], “inactive; negative”; under setting [14], “inactive; negative”; under setting [15], “inactive; negative”. The mutagenic call (Test System: CHINESE HAMSTER V-79, Strain/Indicator: V-79 (HPRT)/6-THIOGUANINE, Metabolic Activation: NONE) is “inactive; negative”.
`Oc1ccc2cc3c4ccccc4c4ccccc4c3cc2c1O`: the mutagenic call under setting [16] was “active; positive”.
For `C=CCc1cc(OC)c(OC)c(OC)c1`, for the setting “Test System: UDS RAT HEPATOCYTES, Strain/Indicator: THY INCORP, Metabolic Activation: NONE, Method: LIQUID SCINTILLATION COUNTING”, the mutagenic call is “active; positive”.
Consider `c1ccc2c(CCC3CO3)cccc2c1` (stereo not drawn), for which the mutagenic call under setting [17] is “active; positive”, the mutagenic call under setting [5] is “active; positive”, the mutagenic call under setting [18] is “active; positive” and the mutagenic call under setting [8] was “active; positive”.
With `[O-][N+](=Nc1ccc2c(c1)Cc1ccccc1-2)c1ccc2c(c1)Cc1ccccc1-2`, the mutagenic call was “inactive; negative” under setting [2] and “inactive; negative” under setting [3].
As for `CCCCC/C=C/C=C/C=O`, the mutagenic call runs as follows: under setting [1], “inactive; negative”; under setting [2], “inactive; negative”; under setting [3], “inactive; negative”; under setting [4], “inactive; negative”; under setting [5], “inactive; negative”; under setting [6], “inactive; negative”. The mutagenic call is, setting by setting: under setting [7], “inactive; negative”; under setting [8], “inactive; negative”; under setting [9], “inactive; negative”; under setting [10], “inactive; negative”; under setting [11], “inactive; negative”; under setting [12], “inactive; negative”. Also, the mutagenic call was “inactive; negative” under setting [13]; “inactive; negative” under setting [14]; “inactive; negative” under setting [15]; “inactive; negative. reevaluation of results: negative” (Test System: MOUSE LYMPHOMA, Strain/Indicator: L5178Y (TK+/TK-), Metabolic Activation: NONE, Method: SUSPENSION/PLATE); “inactive; negative. reevaluation of results: negative” (Test System: MOUSE LYMPHOMA, Strain/Indicator: L5178Y (TK+/TK-), Metabolic Activation: RAT, LIVER, S-9, AROCLOR 1254, Method: SUSPENSION/PLATE).
Consider `[Li+]`, for which the mutagenic call was “inactive; negative” (Test System: AMES SALMONELLA TYPHIMURIUM, Strain/Indicator: TA98, Metabolic Activation: HAMSTER, LIVER, S-9, AROCLOR 1254, Method: PREINCUBATION); “inactive; negative” (Test System: AMES SALMONELLA TYPHIMURIUM, Strain/Indicator: TA98, Metabolic Activation: NONE, Method: PREINCUBATION); “inactive; negative” (Test System: AMES SALMONELLA TYPHIMURIUM, Strain/Indicator: TA98, Metabolic Activation: RAT, LIVER, S-9, AROCLOR 1254, Method: PREINCUBATION); “inactive; negative” (Test System: AMES SALMONELLA TYPHIMURIUM, Strain/Indicator: TA100, Metabolic Activation: HAMSTER, LIVER, S-9, AROCLOR 1254, Method: PREINCUBATION); “inactive; negative” under setting [17]; “inactive; negative” under setting [16]. Moreover, the mutagenic call (Test System: AMES SALMONELLA TYPHIMURIUM, Strain/Indicator: TA1535, Metabolic Activation: HAMSTER, LIVER, S-9, AROCLOR 1254, Method: PREINCUBATION) is “inactive; negative”; the mutagenic call under setting [18] was “inactive; negative”; the mutagenic call (Test System: AMES SALMONELLA TYPHIMURIUM, Strain/Indicator: TA1535, Metabolic Activation: RAT, LIVER, S-9, AROCLOR 1254, Method: PREINCUBATION) was “inactive; negative”; the mutagenic call (Test System: AMES SALMONELLA TYPHIMURIUM, Strain/Indicator: TA1537, Metabolic Activation: HAMSTER, LIVER, S-9, AROCLOR 1254, Method: PREINCUBATION) is “inactive; negative”; the mutagenic call (Test System: AMES SALMONELLA TYPHIMURIUM, Strain/Indicator: TA1537, Metabolic Activation: NONE, Method: PREINCUBATION) is “inactive; negative”; the mutagenic call (Test System: AMES SALMONELLA TYPHIMURIUM, Strain/Indicator: TA1537, Metabolic Activation: RAT, LIVER, S-9, AROCLOR 1254, Method: PREINCUBATION) was “inactive; negative”. The mutagenic call (Test System: E. COLI, Strain/Indicator: WP2 UVRA, Metabolic Activation: NONE, Method: SPOT TEST) is “inactive; negative”.
Regarding `O=C(O)C1=C/C(=N\Nc2ccc(-c3ccc(N=Nc4ccc(N/N=C5\C=CC(=O)C(C(=O)O)=C5)c5cc(S(=O)(=O)O)ccc45)cc3)cc2)C=CC1=O`, the mutagenic call (Test System: AMES SALMONELLA TYPHIMURIUM, Strain/Indicator: TA98, Metabolic Activation: HAMSTER, LIVER, S-9, Method: PREINCUBATION (PRIVAL METHOD)) is “active; positive”.
Turning to `Clc1cc2ccccc2c2ccccc12`, the mutagenic call is, setting by setting: under setting [2], “inactive; negative”; under setting [3], “active; positive”; under setting [5], “inactive; negative”; under setting [6], “inactive; negative”.
Take `Cc1c(C)c2c(nc(N)n2C)c2nccnc12`: the mutagenic call under setting [3] is “active; positive”.
For the compound `O=C(N=c1sn(C(=O)c2ccc(Cl)c(Cl)c2)c2ccc([N+](=O)[O-])cc12)c1ccc(Cl)c(Cl)c1`, under setting [19], the mutagenic call is “active; positive”.
`c1ccc2sc(SNC3CCCCC3)nc2c1`: the mutagenic call reads like this: under setting [2], “inactive; negative”; (Test System: AMES SALMONELLA TYPHIMURIUM, Strain/Indicator: TA98, Metabolic Activation: S-9, Method: STANDARD PLATE) “inactive; negative”; under setting [5], “inactive; negative”; under setting [19], “inactive; negative”.
